These molecules were tested on kynurenine-3-monooxygenase (KMO) (assay: KMO inhibition, radiometric assay per Erickson et al. (release of 3H2O from L-[3,5-3H]-kynurenine)). Conditions: compound at 10 μM.
Type: biochemical
Method: The KMO inhibiting activities of the compounds of the present invention were evaluated using standard methods. See Erickson et al., A Radiometric Assay for Kynurenine 3-Hydroxylase Based on the Release of ^3H2O During Hydroxylation of L-[3,5-^3H]-Kynurenine, Anal. Biochem. 1992, 205, 257-262, the disclosure of which is hereby incorporated by reference.
The IC50 value is the half maximal inhibitory concentration and represents the concentration of an inhibitor that is required for 50% inhibition of an enzyme activity and the percent inhibition measures the amount of enzyme activity inhibited at a given concentration of compound. If the administered compound is a prodrug then the prodrug may not inhibit KMO until it has metabolized appropriately.

Row | Structure (SMILES) | % inhibition at 10 μM [%]
1 | COc1ccc(S(=O)(=O)Nc2nc(-c3ccccc3)ns2)cc1OC [Compound A1, 3,4-dimethoxy-N-[3-(phenyl)-1,2,4-thiadiazol-5-yl]benzenesulfonamide] | 73.61
2 | Cc1ccc(S(=O)(=O)Nc2nc(-c3ccccc3)ns2)cc1 [Compound A2, 4-methyl-N-[3-(phenyl)-1,2,4-thiadiazol-5-yl]benzenesulfonamide] | 77.9
3 | COc1ccc(S(=O)(=O)Nc2nnc(-c3ccccc3)s2)cc1OC [Compound A5, 3,4-dimethoxy-N-[5-(phenyl)-1,3,4-thiadiazol-2-yl]benzenesulfonamide] | 60.03
4 | Cc1ccc(S(=O)(=O)Nc2nnc(-c3ccccc3)s2)cc1 [Compound A6, 4-methyl-N-[5-(phenyl)-1,3,4-thiadiazol-2-yl]benzenesulfonamide] | 71.59
5 | COc1ccc(S(=O)(=O)Nc2cc(-c3ccccc3)no2)cc1OC [Compound A13, 3,4-dimethoxy-N-[3-(phenyl)-isoxazol-5-yl]benzenesulfonamide] | 17.82
6 | Cc1ccc(S(=O)(=O)Nc2cc(-c3ccccc3)no2)cc1 [Compound A14, 4-methyl-N-[3-(phenyl)-isoxazol-5-yl]benzenesulfonamide] | 30.74
7 | COc1ccc(S(=O)(=O)Nc2nsc(-c3ccc(Cl)cc3)n2)cc1OC [Compound A19, 3,4-dimethoxy-N-[5-(4-chlorophenyl)-1,2,4-thiadiazole-3-yl]benzenesulfonamide] | 68.6
8 | COc1ccc(S(=O)(=O)[N-]c2cccc(-c3ccccc3)c2)cc1OC.[K+] [Compound A22, Potassium 3,4-dimethoxy-N-[biphenyl-3-yl]benzenesulfonamide] | 19.57
9 | COc1ccc(-c2cnc(NS(=O)(=O)c3ccc(OC)c(OC)c3)nc2)cc1 [Compound A23, 3,4-dimethoxy-N-[5-(4-methoxyphenyl)-pyrimidine-2-yl]benzenesulfonamide] | 17.5
10 | COc1ccc(S(=O)(=O)Nc2ccc(-c3ccccc3)cn2)cc1OC [Compound A25, 3,4-dimethoxy-N-[5-(phenyl)-pyridine-2-yl]benzenesulfonamide] | 24.8

Reference: US8071631B2, “Small molecule inhibitors of kynurenine-3-monooxygenase” (The J. David Gladstone Institutes, A Testamentary Trust …, priority 2006, dated 2011)
